Measurements published in ChEMBL document CHEMBL5252541, “Repurposing antipsychotic drugs into antifungal agents: Synergistic combinations of azoles and bromperidol derivatives in the treatment of various fungal infections” (Eur J Med Chem, 2017).
Calls of active or inactive are those of the source. No cut-off for these calls is given here.

Tests used:
Candida albicans [1] = experiment: Antifungal activity against Candida albicans ATCC 10231 measured after 48 hrs by broth microdilution analysis; type: functional
[2] = Cytotoxicity against mouse J774.A1 cells assessed as cell survival at 16 microg/ml by XTT assay; type: toxicity, cell-based; conditions: at 16 µg/mL, read-out: Activity
Candida albicans [3] = experiment: Partial synergistic antifungal activity against Candida albicans ATCC 10231 assessed as fractional inhibitory concentration index measured for 72 hrs in presence of posaconazole; type: functional
[4] = Cytotoxicity against human BEAS-2B cells assessed as cell survival at 8 microg/ml in presence of posaconazole by XTT assay; type: toxicity, cell-based; conditions: at 8 µg/mL, read-out: Activity
Candida albicans [5] = experiment: Fungicidal activity against Candida albicans ATCC 64124 assessed as reduction in colony forming units at 2 to 8 times MIC incubated after 6 hrs by time kill assay; type: functional, organism-based
Candida albicans [6] = experiment: Antifungal activity against Candida albicans ATCC MYA-1003 measured after 48 hrs by broth microdilution analysis; type: functional
[7] = Cytotoxicity against human HEK293 cells assessed as cell survival at 1 to 16 microg/ml in presence of posaconazole by XTT assay; type: toxicity, cell-based; conditions: at 1 to 16 µg/mL, dose 1-16 µg/ml
Candida albicans [8] = experiment: Antifungal activity against Candida albicans ATCC MYA-2876 measured after 48 hrs by broth microdilution analysis; type: functional
Candida albicans [9] = experiment: Synergistic antifungal activity against Candida albicans ATCC 64124 assessed as fractional inhibitory concentration index measured for 72 hrs in presence of posaconazole; type: functional
Candida albicans [10] = experiment: Potency index, ratio of posaconazole MIC to test compound MIC for antifungal activity against Candida albicans ATCC 10231 measured after 48 hrs by broth microdilution analysis; type: functional
Candida albicans [11] = experiment: Synergistic antifungal activity against Candida albicans ATCC 64124 assessed as fractional inhibitory concentration index measured for 72 hrs in presence of voriconazole; type: functional
Aspergillus terreus = experiment: Antifungal activity against Aspergillus terreus ATCC MYA-3633 measured after 48 hrs by broth microdilution analysis; type: functional
Nakaseomyces glabratus [12] = experiment: Additive antifungal activity against Candida glabrata ATCC 2001 assessed as fractional inhibitory concentration index measured for 72 hrs in presence of posaconazole; type: functional
Candida albicans [13] = experiment: Partial synergistic antifungal activity against Candida albicans ATCC MYA-2310 assessed as fractional inhibitory concentration index measured for 72 hrs in presence of posaconazole; type: functional
Candida albicans [14] = experiment: Synergistic antifungal activity against Candida albicans ATCC 64124 assessed as compound MIC measured after 48 hrs in presence of fluconazole by checkboard based microplate reader analysis; type: functional
Candida albicans [15] = experiment: Synergistic antifungal activity against Candida albicans ATCC 10231 assessed as compound MIC measured after 48 hrs in presence of itraconazole by checkboard based microplate reader analysis; type: functional
Candida albicans [16] = experiment: Additive antifungal activity against Candida albicans ATCC MYA-2876 assessed as fractional inhibitory concentration index measured for 72 hrs in presence of voriconazole; type: functional
Candida albicans [17] = experiment: Synergistic antifungal activity against Candida albicans ATCC 10231 assessed as compound MIC measured after 48 hrs in presence of fluconazole by checkboard based microplate reader analysis; type: functional
HEK293 [18] = experiment: Cytotoxicity against human HEK293 cells assessed as cell survival at 32 microg/ml in presence of voriconazole by XTT assay
BEAS-2B [19] = experiment: Cytotoxicity against human BEAS-2B cells assessed as cell survival at 64 microg/ml by XTT assay; type: toxicity, cell-based; conditions: dose 64 µg/ml
Candida albicans [20] = experiment: Synergistic antifungal activity against Candida albicans ATCC 64124 assessed as compound MIC measured after 48 hrs in presence of voriconazole by checkboard based microplate reader analysis; type: functional
Candida albicans [21] = experiment: Synergistic antifungal activity against Candida albicans ATCC 90819 assessed as fractional inhibitory concentration index measured for 72 hrs in presence of voriconazole; type: functional
Candida albicans [22] = experiment: Synergistic antifungal activity against Candida albicans ATCC 64124 assessed as compound MIC measured after 48 hrs in presence of itraconazole by checkboard based microplate reader analysis; type: functional
Candida albicans [23] = experiment: Synergistic antifungal activity against Candida albicans ATCC 10231 assessed as compound MIC measured after 48 hrs in presence of voriconazole by checkboard based microplate reader analysis; type: functional
Candida albicans [24] = experiment: Additive antifungal activity against Candida albicans ATCC MYA-1237 assessed as fractional inhibitory concentration index measured for 72 hrs in presence of posaconazole; type: functional
Candida albicans [25] = experiment: Antifungal activity against Candida albicans ATCC 64124 measured after 48 hrs by broth microdilution analysis; type: functional
Candida albicans [26] = experiment: Antifungal activity against Candida albicans ATCC 90819 measured after 48 hrs by broth microdilution analysis; type: functional
BEAS-2B [27] = experiment: Cytotoxicity against human BEAS-2B cells assessed as cell survival at 8 microg/ml by XTT assay; type: toxicity, cell-based; conditions: dose 8 µg/ml
Candida albicans [28] = experiment: Synergistic antifungal activity against Candida albicans ATCC 64124 assessed as compound MIC measured after 48 hrs in presence of ketoconazole by checkboard based microplate reader analysis; type: functional
[29] = Cytotoxicity against HEK293 cells assessed as cell survival by XTT assay; type: toxicity, cell-based; conditions: human, read-out: Activity
Candida albicans [30] = experiment: Fungicidal activity against Candida albicans ATCC 64124 assessed as reduction in colony forming units at 8 times MIC incubated for 24 hrs by time kill assay; type: functional, organism-based
HEK293 [31] = experiment: Cytotoxicity against HEK293 cells assessed as cell survival at 8 microg/ml by XTT assay; type: toxicity, cell-based; conditions: human, dose 8 µg/ml
Candida albicans [32] = experiment: Synergistic antifungal activity against Candida albicans ATCC 90819 assessed as fractional inhibitory concentration index measured for 72 hrs in presence of posaconazole; type: functional
Candida albicans [33] = experiment: Additive antifungal activity against Candida albicans ATCC 10231 assessed as fractional inhibitory concentration index measured for 72 hrs in presence of fluconazole; type: functional
Nakaseomyces glabratus [34] = experiment: Synergistic antifungal activity against Candida glabrata ATCC 2001 assessed as fractional inhibitory concentration index measured for 72 hrs in presence of posaconazole; type: functional
J774.A1 = experiment: Cytotoxicity against mouse J774.A1 cells assessed as cell survival at 8 microg/ml by XTT assay; type: toxicity, cell-based; conditions: j774.a1, dose 8 µg/ml
[35] = Cytotoxicity against human BEAS-2B cells assessed as cell survival by XTT assay; type: toxicity, cell-based; conditions: read-out: Activity
Candida albicans [36] = experiment: Antifungal activity against Candida albicans ATCC MYA-1237 measured after 48 hrs by broth microdilution analysis; type: functional
Nakaseomyces glabratus [37] = experiment: Additive antifungal activity against Candida glabrata ATCC 2001 assessed as fractional inhibitory concentration index measured for 72 hrs in presence of voriconazole; type: functional
Candida albicans [38] = experiment: Partial synergistic antifungal activity against Candida albicans ATCC 10231 assessed as fractional inhibitory concentration index measured for 72 hrs in presence of voriconazole; type: functional
Nakaseomyces glabratus [39] = experiment: Synergistic antifungal activity against Candida glabrata ATCC 2001 assessed as fractional inhibitory concentration index measured for 72 hrs in presence of voriconazole; type: functional
Candida albicans [40] = experiment: Additive antifungal activity against Candida albicans ATCC MYA-1237 assessed as fractional inhibitory concentration index measured for 72 hrs in presence of voriconazole; type: functional
HEK293 [41] = experiment: Cytotoxicity against human HEK293 cells assessed as cell survival at 64 microg/ml by XTT assay; type: toxicity, cell-based; conditions: dose 64 µg/ml

O=C(CCCN1CCC(O)(c2ccc(Br)cc2)CC1)c1ccc(F)cc1 [BROMPERIDOL]
MIC (Candida albicans [1]): > 128 µg/mL
viability at 16 microg/ml [2]: 72%
fractional inhibitory concentration index (FICI) (Candida albicans [3]): 0.75
viability at 8 microg/ml [4]: 71%
Activity (Candida albicans [5]): Active
MIC (Candida albicans [6]): > 128 µg/mL
viability [7]: 80%
MIC (Candida albicans [8]): > 128 µg/mL
fractional inhibitory concentration index (FICI) (Candida albicans [9]): 0.16
Ratio (Candida albicans [10]): 8
fractional inhibitory concentration index (FICI) (Candida albicans [11]): 0.19
MIC (Aspergillus terreus): > 128 µg/mL
fractional inhibitory concentration index (FICI) (Nakaseomyces glabratus [12]): 0.51
fractional inhibitory concentration index (FICI) (Candida albicans [13]): 0.52
MIC (Candida albicans [14]): 64 µg/mL
MIC (Candida albicans [15]): 64 µg/mL
fractional inhibitory concentration index (FICI) (Candida albicans [16]): 2
MIC (Candida albicans [17]): 64 µg/mL
Activity (HEK293 [18]): Non-Toxic
Activity (BEAS-2B [19]): Non-Toxic
MIC (Candida albicans [20]): 8 µg/mL
fractional inhibitory concentration index (FICI) (Candida albicans [21]): 0.5
MIC (Candida albicans [22]): 64 µg/mL
MIC (Candida albicans [23]): 32 µg/mL
fractional inhibitory concentration index (FICI) (Candida albicans [24]): 2
MIC (Candida albicans [25]): > 128 µg/mL
MIC (Candida albicans [26]): > 128 µg/mL
Activity (BEAS-2B [27]): Non-Toxic
MIC (Candida albicans [28]): 64 µg/mL
viability [29]: > 100%
Activity (Candida albicans [30]): Active
Activity (HEK293 [31]): Non-Toxic
fractional inhibitory concentration index (FICI) (Candida albicans [32]): 0.5
fractional inhibitory concentration index (FICI) (Candida albicans [33]): 1.5
fractional inhibitory concentration index (FICI) (Nakaseomyces glabratus [34]): 0.5
Activity (J774.A1): Non-Toxic
viability [35]: > 100%
MIC (Candida albicans [36]): > 128 µg/mL
fractional inhibitory concentration index (FICI) (Nakaseomyces glabratus [37]): 0.51
fractional inhibitory concentration index (FICI) (Candida albicans [38]): 0.75
fractional inhibitory concentration index (FICI) (Nakaseomyces glabratus [39]): 0.51
fractional inhibitory concentration index (FICI) (Candida albicans [40]): 2
Activity (HEK293 [41]): Non-Toxic
